Laboratory results from US20110301087A1, “CRF1 RECEPTOR COMPOUNDS” (priority 2008, published 2011).
Where a SMILES comes first, the peptide text is derived from it. [ ]: non-standard residue; d: D form. The star is where a group is joined. Palmitoyl = CCCCCCCCCCCCCCCC(=O)*; Nle = CCCC[C@H](N)C(=O)O

Target: T1, CRF1 (Homo sapiens, UniProt P34998)
T1 construct: endogenously expresses functional CRF1; endogenous in cells; host or cells: Y-79 human retinoblastoma cells
T1 sequence (P34998 24-415): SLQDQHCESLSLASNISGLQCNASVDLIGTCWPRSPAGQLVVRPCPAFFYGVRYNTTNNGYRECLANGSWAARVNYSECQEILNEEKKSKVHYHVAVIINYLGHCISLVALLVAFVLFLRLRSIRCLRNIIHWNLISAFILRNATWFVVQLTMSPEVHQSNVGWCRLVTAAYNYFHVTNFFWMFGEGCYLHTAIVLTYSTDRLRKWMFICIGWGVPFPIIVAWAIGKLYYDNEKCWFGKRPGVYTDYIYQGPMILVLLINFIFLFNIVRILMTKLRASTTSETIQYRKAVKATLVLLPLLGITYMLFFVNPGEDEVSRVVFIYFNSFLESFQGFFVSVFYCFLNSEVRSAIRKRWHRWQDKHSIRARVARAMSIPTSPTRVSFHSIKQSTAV
Test: CRF1 assessment of cAMP (HTRF cAMP assay) in Y-79 cells, antagonist mode
Assay type: cell-based
Conditions: Y79 cells; for inhibition at 0.3 µM: 300 nM pepducin against agonist dose response, read-out: % Inhibition (± SD); for IC50: CRF1 cAMP screening, against agonist
Excerpt: HTRF (homogeneous time resolved fluorescence) is a technology developed by Cisbio Bioassays based on TR-FRET (time-resolved fluorescence resonance energy transfer). Cisbio Bioassays has developed a wide selection of HTRF-based assays compatible with whole cells, thereby enabling functional assays run under more physiological conditions. cAMP kits are based on a competitive immunoassay using cryptate-labeled anti-cAMP antibody and d2-labeled cAMP. This assay allows the measurement of increase in intracellular cAMP upon Gs-coupled receptor activation as well as decrease in forskolin stimulated increase in cAMP upon Gi-coupled receptor activation. Cells expressing CRF1 endogenously or via transfection can be used to assess compound pharmacology using cAMP assays as a means to measure the activity of adenylyl cyclase resulting from CRF1 activation or inhibition.
An example of the use of the cAMP assay can be assessing CRF activation of CRF1 in Y-79, a human retinoblastoma cell line which endogenously expresses functional CRF1. Y-79 cells were seeded into 96-well half area black plates at 30K/well in Hank's balanced salt solution with 50 mM HEPES, 0.1% BSA, 200 uM IBMX. Compounds to be tested for agonist activity were added to cells, incubated for 30 minutes at 37 degrees C. and assayed for cAMP concentration. To test for antagonist activity, compounds to be tested were added to cells, followed by the addition of agonist at an experimentally determined optimal concentration, generally the EC80. Plates were incubated for 30 minutes at 37 degrees C. and assayed for cAMP. To determine concentration of cAMP in each well, d2-labeled cAMP in Conjugate/Lysis buffer was added to wells. This addition lysed the cells and input a known concentration of labeled cAMP. This was followed by the addition of anti-cAMP antibody conjugated to cryptate. FRET occurs when cryptate-labeled antibody binds to d2-labeled cAMP. Therefore, the specific signal is inversely proportional to the concentration of cAMP in the sample. Conversion of signal to concentration of cAMP in the well was accomplished by comparing the FRET signal of sample to a standard curve generated using known concentrations of cAMP.

| SMILES | inhibition at 0.3 µM [%] | IC50 [nM] |
| --- | --- | --- |
| CCCCCCCCCCCCCCCC(=O)N[C@@H](C)C(=O)N[C@@H](CC(=O)O)C(=O)N[C@@H](CCCNC(=N)N)C(=O)N[C@@H](CC(C)C)C(=O)N[C@@H](CCCNC(=N)N)C(=O)N[C@@H](CCCCN)C(=O)N[C@@H](Cc1c[nH]c2ccccc12)C(=O)N[C@@H](CCSC)C(=O)N[C@@H](Cc1ccccc1)C(=O)N[C@H](C(N)=O)[C@@H](C)CC [Compound 44] (Palmitoyl-ADRLRKWMFI-NH2) | 42 | > 10000 |
| CCCCCCCCCCCCCCCC(=O)N[C@H](C(=O)N[C@@H](CC(=O)O)C(=O)N[C@@H](CCCNC(=N)N)C(=O)N[C@@H](C)C(=O)N[C@@H](CCCNC(=N)N)C(=O)N[C@@H](CCCCN)C(=O)N[C@@H](Cc1c[nH]c2ccccc12)C(=O)N[C@@H](CCSC)C(=O)N[C@@H](Cc1ccccc1)C(=O)N[C@H](C(N)=O)[C@@H](C)CC)[C@@H](C)O [Compound 47] (Palmitoyl-TDRARKWMFI-NH2) | 62 | 1000 to 5000 |
| CCCCCCCCCCCCCCCC(=O)N[C@H](C(=O)N[C@@H](CC(=O)O)C(=O)N[C@@H](CCCNC(=N)N)C(=O)N[C@@H](CC(C)C)C(=O)N[C@@H](CCCNC(=N)N)C(=O)N[C@@H](CCCCN)C(=O)N[C@@H](Cc1c[nH]c2ccccc12)C(=O)N[C@@H](CCSC)C(=O)N[C@@H](C)C(=O)N[C@H](C(N)=O)[C@@H](C)CC)[C@@H](C)O [Compound 43] (Palmitoyl-TDRLRKWMAI-NH2) | 48 | > 10000 |
| CCCCCCCCCCCCCCCC(=O)N[C@@H](CCCNC(=N)N)C(=O)N[C@@H](CC(C)C)C(=O)N[C@@H](CCCNC(=N)N)C(=O)N[C@@H](CCCCN)C(=O)N[C@@H](Cc1c[nH]c2ccccc12)C(=O)N[C@@H](CCSC)C(=O)N[C@@H](Cc1ccccc1)C(=O)N[C@H](C(N)=O)[C@@H](C)CC [Compound 30] (Palmitoyl-RLRKWMFI-NH2) | 39 ± 7 | 1000 to 5000 |
| CCCCCCCCCCCCCCCC(=O)NCC(=O)N[C@@H](CO)C(=O)N[C@@H](CCCNC(=N)N)C(=O)N[C@@H](CC(C)C)C(=O)N[C@@H](CCCNC(=N)N)C(=O)N[C@@H](CCCCN)C(=O)N[C@@H](Cc1c[nH]c2ccccc12)C(=O)N[C@@H](CCSC)C(=O)N[C@@H](Cc1ccccc1)C(=O)N[C@H](C(N)=O)[C@@H](C)CC [Compound 28] (Palmitoyl-GSRLRKWMFI-NH2) | 52 ± 5 | 1000 to 5000 |

Results, then the compound that gave them:

| inhibition at 0.3 µM [%] | IC50 [nM] | SMILES |
| --- | --- | --- |
| 50 ± 14 |  | CCCCCCCCCCCCCCCC(=O)NCC(=O)N[C@@H](CO)C(=O)N[C@H](C(=O)N[C@@H](CC(=O)O)C(=O)N[C@@H](CCCNC(=N)N)C(=O)N[C@@H](CC(C)C)C(=O)N[C@@H](CCCNC(=N)N)C(=O)N[C@@H](CCCCN)C(=O)N[C@@H](C)C(=O)N[C@@H](CCCC)C(=O)N[C@@H](Cc1ccccc1)C(=O)N[C@H](C(N)=O)[C@@H](C)CC)[C@@H](C)O [Compound 53] (Palmitoyl-GSTDRLRKA[Nle]FI-NH2) |
| 63 | 1000 to 5000 | CCCCCCCCCCCCCCCC(=O)NCC(=O)N[C@@H](CO)C(=O)NCC(=O)N[C@@H](CCCNC(=N)N)C(=O)N[C@@H](CC(C)C)C(=O)N[C@@H](CCCNC(=N)N)C(=O)N[C@@H](CCCCN)C(=O)N[C@@H](Cc1c[nH]c2ccccc12)C(=O)N[C@@H](CCSC)C(=O)N[C@@H](Cc1ccccc1)C(=O)N[C@H](C(N)=O)[C@@H](C)CC [Compound 26] (Palmitoyl-GSGRLRKWMFI-NH2) |
| 42 | > 10000 | CCCCCCCCCCCCCCCC(=O)N[C@H](C(=O)N[C@@H](CC(=O)O)C(=O)N[C@@H](CCCNC(=N)N)C(=O)N[C@@H](CC(C)C)C(=O)N[C@@H](CCCNC(=N)N)C(=O)N[C@@H](C)C(=O)N[C@@H](Cc1c[nH]c2ccccc12)C(=O)N[C@@H](CCSC)C(=O)N[C@@H](Cc1ccccc1)C(=O)N[C@H](C(N)=O)[C@@H](C)CC)[C@@H](C)O [Compound 49] (Palmitoyl-TDRLRAWMFI-NH2) |
| 35 | 501 to 1000 | CCCCCCCCCCCCCCCC(=O)N[C@@H](CCCNC(=N)N)C(=O)N[C@H](C(=O)N[C@@H](CC(C)C)C(=O)N[C@@H](CCSC)C(=O)N[C@H](C(=O)N[C@@H](CCCCN)C(=O)N[C@@H](CC(C)C)C(=O)N[C@@H](CCCNC(=N)N)C(=O)N[C@@H](C)C(=O)N[C@@H](CO)C(=O)N[C@H](C(=O)N[C@H](C(=O)N[C@@H](CO)C(N)=O)[C@@H](C)O)[C@@H](C)O)[C@@H](C)O)[C@@H](C)CC [Compound 58, Pal-RILMTKLRASTTS-amide] (Palmitoyl-RILMTKLRASTTS-NH2) |
| 30 ± 17 | 1000 to 5000 | CCCCCCCCCCCCCCCC(=O)N[C@@H](CC(=O)O)C(=O)N[C@@H](CCCNC(=N)N)C(=O)N[C@@H](CC(C)C)C(=O)N[C@@H](CCCNC(=N)N)C(=O)N[C@@H](CCCCN)C(=O)N[C@@H](Cc1c[nH]c2ccccc12)C(=O)N[C@@H](CCSC)C(=O)N[C@@H](Cc1ccccc1)C(=O)N[C@H](C(N)=O)[C@@H](C)CC [Compound 31] (Palmitoyl-DRLRKWMFI-NH2) |
| 54 ± 13 | 1000 to 5000 | CCCCCCCCCCCCCCCC(=O)N[C@@H](CCCNC(=N)N)C(=O)N[C@@H](CC(C)C)C(=O)N[C@@H](CCCNC(=N)N)C(=O)N[C@@H](CO)C(=O)N[C@H](C(=O)N[C@@H](CCCNC(=N)N)C(=O)N[C@@H](CO)C(=O)N[C@@H](CC(C)C)C(=O)N[C@@H](CCCNC(=N)N)C(=O)N[C@@H](CC(N)=O)C(=O)N[C@H](C(=O)N[C@H](C(=O)N[C@@H](Cc1c[nH]cn1)C(=O)N[C@@H](Cc1c[nH]c2ccccc12)C(=O)N[C@@H](CC(N)=O)C(N)=O)[C@@H](C)CC)[C@@H](C)CC)[C@@H](C)CC [Compound 5] (Palmitoyl-RLRSIRSLRNIIHWN-NH2) |
| 47 ± 7 | 501 to 1000 | CCCCCCCCCCCCCCCC(=O)N[C@H](C(=O)N[C@@H](CC(=O)O)C(=O)N[C@@H](CCCNC(=N)N)C(=O)N[C@@H](CC(C)C)C(=O)N[C@@H](CCCNC(=N)N)C(=O)N[C@@H](CCCCN)C(=O)N[C@@H](Cc1c[nH]c2ccccc12)C(=O)N[C@@H](C)C(=O)N[C@@H](Cc1ccccc1)C(=O)N[C@H](C(N)=O)[C@@H](C)CC)[C@@H](C)O [Compound 51] (Palmitoyl-TDRLRKWAFI-NH2) |
